Assay results taken from article PMC4319572 (Structure (London, England : 1993), 2015).
Positions count from the first letter of the chain named.

B1: Hof1p F-BAR domain (residues 1-300) (domain or fragment, S. cerevisiae, UniProt Q05080 1-300, looked up)
chain: MSYSYEACFWDPNDNGVNILLGHISQGIRSCDSMILFFKQRSELEKDYARRLGAITGKLDKDIGTNMDYGKLNETFNVVLSVEKARAQSHSKQSEILFRQIYTDTKAFAANLQARYTTLSGKIERLRMDKFNKKKGCEVLQKKLQDAQIRFRDLQLNENNMIGAKRVEHNKRELLKWESNSQEYKVQLDVLKQEYKASQKFWIHEWAQLSCELQEMENARISFLQSKLQQFATSSMETYILEQTKMDMLTNHLNSFTAADEISTFSKENGTGRLKHKTSKGDMNSSANWAQMSSISTTSK
modifications: selenomethionine (SeMet) in the protein used for the crystals
B2: Rgd1p F-BAR domain (residues 24-333) (domain or fragment, S. cerevisiae, UniProt P38339 24-333, looked up)
chain: DDLAHLFSTPEIKKVLNSDVAINALLSRLKQSLLTCEEFMKFIRKKYAFEEEHVQELSKQYKHFFNIQGSTNSSLKKMIHEVLGFDGKMAQVKQSYITALQKMYSEISSLLLTMTKLRKSVKENSKRLEKDVSDAIHSAEKAQSRYNSLCQDWDKLRMTDPTKTKLTLRGSKTTKEQEEELLRKIDNADLEYKQKVDHSNSLRNTFITKERPRIVQELKDLILEIDTAMTIQLQKYTIWTENLVLNTGVTISPLDSTKSMKSFAGSVSNERDLYSFLNKYNQTGKHSLLINKNLIPVSYKKHPSMNHGQK

Assays:
[1] = molecular target: T1, Rgd1p F-BAR domain (residues 1-324) (Saccharomyces cerevisiae, UniProt P38339, R141D/K142E); test: surface plasmon resonance; assay type: binding; conditions: 30 μM protein over 10% (mole/mole) PtdIns(4,5)P2 in DOPC
T1 sequence (P38339 1-324 R141D/K142E): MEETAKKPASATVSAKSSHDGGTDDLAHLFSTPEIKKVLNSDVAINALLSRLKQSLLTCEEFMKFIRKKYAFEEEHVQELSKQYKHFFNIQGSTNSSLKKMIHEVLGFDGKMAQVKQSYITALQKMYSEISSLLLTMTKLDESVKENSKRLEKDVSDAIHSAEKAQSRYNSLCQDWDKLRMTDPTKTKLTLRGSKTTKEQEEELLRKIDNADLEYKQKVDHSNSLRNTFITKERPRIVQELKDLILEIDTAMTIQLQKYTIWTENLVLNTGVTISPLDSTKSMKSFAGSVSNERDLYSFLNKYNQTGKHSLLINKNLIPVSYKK

[2] = molecular target: T2, Rgd1p F-BAR domain (residues 1-324) (Saccharomyces cerevisiae, UniProt P38339, R141D); test: surface plasmon resonance; assay type: binding; conditions: 30 μM protein over 10% (mole/mole) PtdIns(4,5)P2 in DOPC
T2 sequence (P38339 1-324 R141D): T1 sequence (P38339 1-324 R141D/K142E) with E142K

[3] = molecular target: T3, Rgd1p F-BAR domain (residues 1-324) (Saccharomyces cerevisiae, UniProt P38339, R141D/K145E); test: surface plasmon resonance; assay type: binding; conditions: 30 μM protein over 10% (mole/mole) PtdIns(4,5)P2 in DOPC
T3 sequence (P38339 1-324 R141D/K145E): T1 sequence (P38339 1-324 R141D/K142E) with E142K, K145E

[4] = molecular target: T4, Rgd1p F-BAR domain (residues 1-324) (Saccharomyces cerevisiae, UniProt P38339, K149E/K153E); test: surface plasmon resonance; assay type: binding; conditions: 30 μM protein over 10% (mole/mole) PtdIns(4,5)P2 in DOPC
T4 sequence (P38339 1-324 K149E/K153E): T1 sequence (P38339 1-324 R141D/K142E) with D141R, E142K, K149E, K153E

[5] = molecular target: T5, Rgd1p F-BAR domain (residues 1-324) (Saccharomyces cerevisiae, UniProt P38339); test: competition off PtdIns; assay type: binding; conditions: membranes with 10% (mole/mole) PtdIns(4,5)P2; competitive
T5 sequence (P38339 1-324): T1 sequence (P38339 1-324 R141D/K142E) with D141R, E142K

[6] = molecular target: the molecule itself; test: crystal structure
[7] = molecular target: the molecule itself; test: AUC

Molecule | competition [5] | stoichiometry N [6] | other results
CCCCCCCC/C=C\CCCCCCCC(=O)OC[C@H](COP(=O)(O)O[C@@H]1[C@H](O)[C@H](O)[C@@H](OP(=O)(O)O)[C@H](OP(=O)(O)O)[C@H]1O)OC(=O)CCCCCCC/C=C\CCCCCCCC [dioleoyl-PtdIns(4,5)P2] | – | – | binding relative to wild type [1]: as seen for R141D/K142E and R141D/K145E doubly-mutated variants; % reduction of binding vs wild type at 30 μM protein [2]: > 75%; binding relative to wild type [3]: as seen for R141D/K142E and R141D/K145E doubly-mutated variants; binding relative to wild type [4]: Glutamate substitutions at K149 and K153
O=P(O)(O)O[C@H]1[C@H](O)[C@@H](O)[C@H](OP(=O)(O)O)[C@@H](OP(=O)(O)O)[C@H]1O [isolated headgroup of PtdIns(3,4)P2] | isolated headgroups of these three phosphoinositides were equally potent in their ability to compete | – | –
O=P(O)(O)O[C@H]1[C@H](O)[C@@H](OP(=O)(O)O)[C@H](O)[C@@H](OP(=O)(O)O)[C@H]1O [isolated headgroup of PtdIns(3,5)P2] | isolated headgroups of these three phosphoinositides were equally potent in their ability to compete | – | –
O=P(O)(O)O[C@@H]1[C@H](O)[C@H](O)[C@@H](OP(=O)(O)O)[C@H](OP(=O)(O)O)[C@H]1O [isolated headgroup of PtdIns(4,5)P2] | isolated headgroups of these three phosphoinositides were equally potent in their ability to compete | – | –
B1 | – | 2 | Kd [7]: ~3000 nM
B2 | – | 2 | –
